Assay results published in ChEMBL document CHEMBL1201862, “PubChem BioAssay data set” (2004).
Active and inactive are the calls of the source.

Tests used:
[1] = target: T1, Caspase-6 (Homo sapiens, UniProt P55212); assay: inhibition of CASP6 peptide cleavage – biochemical, VEID-R110 fluorescence, cherry-pick, dose response (AID 720632)
T1 sequence (P55212 whole entry): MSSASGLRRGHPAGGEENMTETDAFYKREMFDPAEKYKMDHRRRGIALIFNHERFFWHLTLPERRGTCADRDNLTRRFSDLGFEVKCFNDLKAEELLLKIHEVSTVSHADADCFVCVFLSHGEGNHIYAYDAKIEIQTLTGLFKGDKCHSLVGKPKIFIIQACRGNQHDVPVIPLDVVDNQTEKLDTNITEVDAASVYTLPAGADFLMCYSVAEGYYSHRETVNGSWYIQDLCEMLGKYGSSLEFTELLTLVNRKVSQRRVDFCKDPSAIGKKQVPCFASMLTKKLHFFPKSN

[2] = target: T2, Protein RecA (Mycobacterium tuberculosis, UniProt P9WHJ3); assay: Fluorescence Cell-Free Homogeneous Dose Retest to Identify Inhibitors of RecA-Intein Splicing Activity. [Related pubchem assays (depositor defined):AID2097, AID2223, AID489010, AID492950]; assay type: functional
T2 sequence (P9WHJ3 whole entry): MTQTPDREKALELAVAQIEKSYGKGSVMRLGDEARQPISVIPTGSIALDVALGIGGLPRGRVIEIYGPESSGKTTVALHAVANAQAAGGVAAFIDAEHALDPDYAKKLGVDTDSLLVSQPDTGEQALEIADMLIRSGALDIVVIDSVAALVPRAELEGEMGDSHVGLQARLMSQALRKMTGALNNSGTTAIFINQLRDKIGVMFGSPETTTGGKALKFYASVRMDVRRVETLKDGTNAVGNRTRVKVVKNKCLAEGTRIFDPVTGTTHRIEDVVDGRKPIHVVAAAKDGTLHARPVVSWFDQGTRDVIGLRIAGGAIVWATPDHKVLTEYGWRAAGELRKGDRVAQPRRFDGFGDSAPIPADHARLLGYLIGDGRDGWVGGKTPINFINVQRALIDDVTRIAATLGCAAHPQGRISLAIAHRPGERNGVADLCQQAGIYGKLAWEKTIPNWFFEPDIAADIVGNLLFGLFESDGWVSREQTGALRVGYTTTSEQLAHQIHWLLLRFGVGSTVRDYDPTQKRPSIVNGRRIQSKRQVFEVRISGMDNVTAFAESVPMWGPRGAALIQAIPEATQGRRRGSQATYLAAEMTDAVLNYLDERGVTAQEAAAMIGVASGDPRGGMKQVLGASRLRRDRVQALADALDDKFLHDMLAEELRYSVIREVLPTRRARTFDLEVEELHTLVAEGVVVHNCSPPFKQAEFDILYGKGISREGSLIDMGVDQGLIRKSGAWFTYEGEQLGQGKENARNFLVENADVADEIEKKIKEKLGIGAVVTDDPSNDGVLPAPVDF

[3] = target: T3, Corticotropin-releasing factor receptor 2/Corticotropin-releasing factor-binding protein (Homo sapiens, UniProt P24387+Q13324); assay: activators of CRF receptor 2 with binding protein – uHTS hits, confirmation (AID 602473); assay type: functional; settings: read-out: EC50_Mean
T3 sequence (Q13324 whole entry): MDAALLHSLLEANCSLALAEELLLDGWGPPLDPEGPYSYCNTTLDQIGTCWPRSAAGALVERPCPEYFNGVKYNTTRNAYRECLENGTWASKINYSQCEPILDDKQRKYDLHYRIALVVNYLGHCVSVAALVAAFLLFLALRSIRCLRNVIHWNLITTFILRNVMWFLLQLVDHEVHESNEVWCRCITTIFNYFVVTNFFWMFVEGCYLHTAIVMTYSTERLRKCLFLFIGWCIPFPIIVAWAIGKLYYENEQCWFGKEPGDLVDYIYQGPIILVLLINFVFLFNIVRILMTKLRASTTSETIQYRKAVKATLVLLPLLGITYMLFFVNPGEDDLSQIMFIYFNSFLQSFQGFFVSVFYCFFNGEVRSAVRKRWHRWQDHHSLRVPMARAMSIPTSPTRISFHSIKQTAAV
T3 sequence (P24387 whole entry): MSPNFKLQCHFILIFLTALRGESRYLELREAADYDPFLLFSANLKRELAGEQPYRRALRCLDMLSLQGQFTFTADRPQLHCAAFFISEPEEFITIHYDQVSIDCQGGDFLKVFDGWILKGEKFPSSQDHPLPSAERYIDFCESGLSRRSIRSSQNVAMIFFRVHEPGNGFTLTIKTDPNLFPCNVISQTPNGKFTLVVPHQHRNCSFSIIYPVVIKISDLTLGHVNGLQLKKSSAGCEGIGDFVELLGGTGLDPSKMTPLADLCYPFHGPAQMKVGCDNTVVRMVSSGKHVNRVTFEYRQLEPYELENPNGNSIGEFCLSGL

[4] = target: T4, Replicative DNA helicase DnaB (Mycobacterium tuberculosis, UniProt P9WMR3); assay: DnaB intein splicing inhibitors, dose response, biochemical, cell-free fluorescence (AID 449749); assay type: functional
T4 sequence (P9WMR3 whole entry): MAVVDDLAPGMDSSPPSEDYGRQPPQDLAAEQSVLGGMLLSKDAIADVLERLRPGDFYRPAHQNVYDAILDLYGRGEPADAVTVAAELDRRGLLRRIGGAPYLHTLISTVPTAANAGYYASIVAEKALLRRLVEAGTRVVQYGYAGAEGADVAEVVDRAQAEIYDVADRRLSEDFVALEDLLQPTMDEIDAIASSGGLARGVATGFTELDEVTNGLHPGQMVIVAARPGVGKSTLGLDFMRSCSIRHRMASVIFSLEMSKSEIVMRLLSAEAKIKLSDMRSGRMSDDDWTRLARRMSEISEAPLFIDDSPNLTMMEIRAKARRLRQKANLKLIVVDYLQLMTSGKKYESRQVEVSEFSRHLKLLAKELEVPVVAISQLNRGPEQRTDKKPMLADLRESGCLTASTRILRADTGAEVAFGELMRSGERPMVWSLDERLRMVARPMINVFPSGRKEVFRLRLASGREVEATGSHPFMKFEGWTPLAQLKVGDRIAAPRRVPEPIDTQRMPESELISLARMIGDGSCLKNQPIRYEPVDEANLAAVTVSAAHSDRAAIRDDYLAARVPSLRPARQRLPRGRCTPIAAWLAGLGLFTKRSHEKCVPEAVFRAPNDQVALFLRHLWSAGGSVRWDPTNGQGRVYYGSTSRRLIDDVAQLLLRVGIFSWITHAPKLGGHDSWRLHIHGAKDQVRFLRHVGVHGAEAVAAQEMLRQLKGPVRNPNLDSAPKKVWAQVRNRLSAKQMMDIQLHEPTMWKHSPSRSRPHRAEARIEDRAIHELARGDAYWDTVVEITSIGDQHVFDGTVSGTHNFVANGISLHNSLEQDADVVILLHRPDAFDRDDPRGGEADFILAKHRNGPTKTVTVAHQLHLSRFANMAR

[5] = target: T5, Carboxy-terminal domain RNA polymerase II polypeptide A small phosphatase 1 (Homo sapiens, UniProt Q9GZU7); assay: CTDSP1 inhibitors, concentration-response, biochemical, absorbance readout, ultra-high-throughput screen actives (AID 540297); assay type: functional
T5 sequence (Q9GZU7 whole entry): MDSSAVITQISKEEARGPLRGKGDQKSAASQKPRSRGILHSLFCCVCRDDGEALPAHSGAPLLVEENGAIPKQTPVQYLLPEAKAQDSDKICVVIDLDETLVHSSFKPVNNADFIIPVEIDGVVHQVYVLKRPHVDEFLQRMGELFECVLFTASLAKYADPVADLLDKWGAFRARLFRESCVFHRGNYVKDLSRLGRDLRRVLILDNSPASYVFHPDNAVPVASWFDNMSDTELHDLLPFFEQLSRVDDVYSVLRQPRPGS

[6] = M. tuberculosis H37Rv growth inhibitors, H37Rv strain (AID 1626); assay type: functional
[7] = viability loss of HPDE-C7K cells – cell-based, fluorescence, HTS, primary screen (AID 431); assay type: functional; settings: Homo sapiens
[8] = HPDE-C7 pancreatic duct cell viability loss – fluorescence, HTS (AID 430); assay type: functional, cell-based; settings: Homo sapiens
[9] = target: T6, Tyrosine-protein phosphatase non-receptor type 7 (Homo sapiens, UniProt P35236); assay: HePTP tyrosine phosphatase activity blockers – biochemical, absorbance, leukemia target, primary screen (AID 521); assay type: functional
T6 sequence (P35236 whole entry): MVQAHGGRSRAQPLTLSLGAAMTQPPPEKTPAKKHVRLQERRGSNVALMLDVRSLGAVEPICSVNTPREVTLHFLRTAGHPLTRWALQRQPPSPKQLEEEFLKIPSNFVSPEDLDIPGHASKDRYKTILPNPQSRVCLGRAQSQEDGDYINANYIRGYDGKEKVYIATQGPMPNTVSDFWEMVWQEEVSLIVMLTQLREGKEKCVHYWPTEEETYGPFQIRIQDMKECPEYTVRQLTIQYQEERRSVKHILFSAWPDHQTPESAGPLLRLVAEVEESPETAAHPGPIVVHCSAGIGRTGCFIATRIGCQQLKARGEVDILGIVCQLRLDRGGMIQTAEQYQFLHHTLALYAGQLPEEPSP

[10] = target: Paired box protein Pax-8 (Homo sapiens, UniProt Q06710); assay: PAX8 transcriptional activity inhibition in RMG-I – RMG-I cells, luciferase, cherry-pick, dose response (AID 687027); assay type: functional, cell-based;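 also: luciferase reporter driven by Pax8 target thyroperoxidase promoter measured by SteadyGlo luminescence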
Paired box protein Pax-8, sequence (Q06710 whole entry): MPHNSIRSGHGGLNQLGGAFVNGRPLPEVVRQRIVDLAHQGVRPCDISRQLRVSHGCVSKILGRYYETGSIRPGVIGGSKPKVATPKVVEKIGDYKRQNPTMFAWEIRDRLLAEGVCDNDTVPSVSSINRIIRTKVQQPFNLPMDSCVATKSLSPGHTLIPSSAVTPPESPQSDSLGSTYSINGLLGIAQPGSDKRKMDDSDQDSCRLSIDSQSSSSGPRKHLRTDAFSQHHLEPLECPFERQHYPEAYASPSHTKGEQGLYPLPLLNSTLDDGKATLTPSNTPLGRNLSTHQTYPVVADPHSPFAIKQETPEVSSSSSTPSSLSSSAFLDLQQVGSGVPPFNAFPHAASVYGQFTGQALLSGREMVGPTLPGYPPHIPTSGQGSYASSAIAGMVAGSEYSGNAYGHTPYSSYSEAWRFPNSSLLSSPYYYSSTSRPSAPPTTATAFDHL

[11] = OVCAR-3 cell viability loss – plate reader, dry powder samples, PAX8 inhibitor project, dose response (AID 743044); assay type: functional, cell-based
[12] = toxicity to human hepatoma HepG2 cells – cell-based, cherry-picked samples, cytotoxicity control, dose response (AID 1159577); assay type: functional
[13] = P. falciparum Dd2 growth inhibitors, dose response, SYBR Green, cherry-picked samples (AID 1159567); assay type: functional, cell-based
[14] = mitochondrial function rescue without frataxin homolog – Friedreich's ataxia, plus single-dose screen, dose response (AID 1465); assay type: functional;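 also: yeast depleted of Yfh1p frataxin homolog grown on glycerol needing respiration; WST-1 tetrazolium dye reduction as measure of cellular dehydrogenase metabolic activity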
[15] = target: Cytochrome P450 2C19 (Homo sapiens, UniProt P33261); assay: Cytochrome panel assay with activity outcomes. Panel member name: p450-cyp2c19 Compounds with AC50 equal or less than 10 uM are considered active; assay type: functional; settings: read-out: AC50
Cytochrome P450 2C19, sequence (P33261 whole entry): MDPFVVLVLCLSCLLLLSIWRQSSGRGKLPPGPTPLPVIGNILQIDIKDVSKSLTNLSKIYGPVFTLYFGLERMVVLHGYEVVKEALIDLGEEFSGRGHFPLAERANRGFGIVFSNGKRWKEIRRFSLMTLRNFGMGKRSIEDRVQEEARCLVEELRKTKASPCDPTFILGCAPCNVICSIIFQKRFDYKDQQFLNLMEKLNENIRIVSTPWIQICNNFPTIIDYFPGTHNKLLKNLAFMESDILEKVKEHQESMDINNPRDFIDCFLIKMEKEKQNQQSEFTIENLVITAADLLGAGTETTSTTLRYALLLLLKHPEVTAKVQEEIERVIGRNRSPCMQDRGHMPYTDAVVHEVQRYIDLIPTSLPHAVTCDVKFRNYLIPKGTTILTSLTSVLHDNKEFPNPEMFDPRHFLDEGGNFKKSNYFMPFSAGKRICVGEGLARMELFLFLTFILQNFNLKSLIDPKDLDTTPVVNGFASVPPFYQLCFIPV

In the case of `O=C([C-](C1=[N+](Cc2ccc(Cl)nc2)CCN1Cc1ccc(Cl)nc1)[N+](=O)[O-])C(Cl)Cl`, the AC50 [1] is reported as 8.77 µM (active), the EC50 [2] is reported as 3.48 µM (active) and the EC50 [3] is reported as > 53 µM (inactive). The AC50 [4] was 2.03 µM (active).

In the case of `Nc1ccc(C(=O)Nc2ccc3c(O)cc(S(=O)(=O)O)cc3c2)cc1`, the AC50 [1] is reported as 8.79 µM (active) and the IC50 [5] is reported as 4.61 µM (active).

In the case of `O=[N+]([O-])c1ccc(-c2ccc(/C=N/O)o2)cc1`, the IC50 [6] is reported as > 100 µM (active).

For `O=C(COC(=O)C1COc2ccccc2O1)NC(=O)Nc1ccc2c(c1)OCCO2` (stereo not drawn), the IC50 [6] was > 100 µM (active).

With `COc1cc(NC(=O)C2CCCCN2)ccc1OCC(C)C` (stereo not drawn) the EC50 [7] was > 20 µM (not active) and the EC50 [8] was > 20 µM (not active).

For `O=C(NC1CCCCCC1)c1c(F)c(F)c(F)c(F)c1F`, the IC50 [9] was > 100 µM (not active).

For `O=C(Nc1ccccc1)N1C[C@@H]2N[C@H](C1)[C@@H]2c1ccc(/C=C/c2ccccc2)cc1`, the AC50 [10] was 22.6 µM (active), the AC50 [11] was 33.5 µM (active) and the AC50 [12] was 7.17 µM (active). The AC50 [13] was 1.85 µM (active).

With `O=C(NC1=NCCS1)c1ccc2c(c1)C(=O)N(Cc1ccco1)C2=O` the IC50 [9] was > 100 µM (not active).

With `NS(=O)(=O)c1cccc(NC(=O)c2ccc3[nH]cnc3c2)c1` the AC50 [1] was 17.3 µM (active) and the IC50 [5] was 7.41 µM (active).

In the case of `CN(C)c1ccc(/C=C(/C(=O)c2ccc(Cl)cc2Cl)n2cncn2)cc1`, the EC50 [14] is reported as > 100 µM (active).

For `CC(=O)NC1(c2cccc(F)c2)CCN(CC(=O)NC2CCCCC2)CC1`, the EC50 [7] was > 20 µM (not active), the EC50 [8] was > 20 µM (not active) and the AC50 [15] was 3.55 µM (inconclusive).

For `O=C(OCN1C(=O)c2ccccc2C1=O)c1cccs1`, the IC50 [9] was > 100 µM (not active).
